Results published in patent publication US4301065A, “Novel polypeptides having thymic activity or an antagonistic activity and processes for their synthesis” (Agence Nationale de Valorisation de la Recherche (ANVAR), priority 1977, dated 1981).
≈ marks a conversion by molar mass, not a printed value. Square brackets hold non-standard residues; d marks the D form. Ends that are not written are not given here. Peptide text beside a SMILES is read from it. pGlu = O=C1CC[C@@H](C(=O)O)N1; βAla = NCCC(=O)O

Experiments:
[1] = system: thymectomised mice; experiment: Kinetics of the activity in the serum after injection of peptide without carboxymethyl cellulose; type: in vivo; conditions: 1 ng of polypeptide injected into thymectomised mice; active serum dilutions against time; FIGS. 1 to 3
Source text: These kinetics have also been established for active products, but without any delay action, by way of comparison. The results of these tests have been established in the form of curves in FIGS. 1, 2 and 3 of the accompanying drawings.

[2] = system: rosette-forming cells of the spleen of thymectomised mice; experiment: Test in vivo on the spleen: correction of the reactivity of rosette-forming spleen cells to azathioprine; conditions: Table IV, quantity injected 0,1 ng, individual values
Protocol: (3) Correction of the abnormal reactivity of the cells forming the rosettes of the spleen with azathioprine in thymectomised mice 24 hours after injecting the peptide (0.1, 1 and 10 ng) bonded to the carboxymethyl cellulose.
The tests on the spleen were carried out by determining the quantity of azathioprine which is necessary for inhibiting the rosette-forming cells of the spleen of thymectomised mice after an established time (24 hours and possibly also 48 hours) after the injection of an established quantity of polypeptide (0.1, 1 or 10 ng).

[3] = system: thymectomised mice; experiment: Activity in vivo: study of the serum after injection of peptide absorbed on carboxymethyl cellulose
Protocol: The peptides active in vitro were also checked in tests carried out in vivo. Injected into 6 weeks old thymectomised mice and used 8 weeks after the thymectomy, the peptides produce the appearance at the 15th minute in the serum of a biological activity conferring the sensitivity to the azothioprine of the spleen cells forming rosettes. […] (2) Activity in vivo (study of the serum 2 hours and 4 hours after injection into thymectomised mice in different quantities (0.1, 1 or 10 ng) of peptide absorbed on carboxymethyl cellulose). The results of the tests in vivo on the serum and on the spleen, set out in Tables II, III and IV, were established by the procedure as previously indicated.

[4] = system: cells of the spleen forming rosettes (RFC); experiment: Rosette test in vitro (thymic activity); type: cell-based, adult C 57/B1 6 mice; conditions: for Activity in the rosette test (control peptides): in vitro, control peptides of similar molecular weight
Protocol: The thymic activity of the polypeptide is established by incubation in a hemolysis tube with 3×10^6 cells of the spleen originating from adult C 57/B1 6 mice (supplied by the Centre d'Elevage des Animaux de Laboratoire of C.N.R.S. (45 Orleans, La Source), thymectomised 10 to 20 days previously. The thymectomy method is described by M. Dardenne and J. F. Bach in Immunology, 25, 343 (1973) on page 344. The contents of this article are incorporated herein by reference.
The incubation is carried out for 90 minutes at 37° C. in the presence of azathioprine (Az) at a concentration of 10 μg/ml.
On completion of the incubation, 12×10^6 red cells from sheep's blood (SRBC) are added to the cells in the test specimen. The cells in the specimen are centrifuged for 6 minutes at 200 g and carefully brought gently into suspension by rotation on a roller (diameter 10 cm) at a low speed (10 r.p.m.). The RFC are counted in a hematocytometer.
(1) Activity in vitro in the rosette test.

[5] = system: antibodies; experiment: Bonding with the antibodies; type: binding; set-up: key: +: the peptide is bonded; -: is not bonded to the antibodies
Source text: The suitability of the peptides for being bonded to the antibodies is indicated by the + and - symbols, which respectively signify that the peptide is bonded or is not bonded to the antibodies.

## CC(=O)NCCCC[C@H](NC(=O)[C@H](C)NC(=O)[C@@H]1CCC(=O)N1)C(=O)N[C@@H](CO)C(=O)N[C@@H](CCC(N)=O)C(=O)NCC(=O)NCC(=O)N[C@@H](CO)C(=O)N[C@@H](CC(N)=O)C(=O)O [Peptide 62, PyroGlu-Ala-Lys(Ac)-Ser-Gln-Gly-Gly-Ser-Asn] ([pGlu]AK(Ac)SQGGSN-OH)
[1]
  Time of the activity peak in the serum after injection: ~45 min

## C[C@H](NC(=O)[C@@H]1CCC(=O)N1)C(=O)N[C@@H](CCCCN)C(=O)N[C@@H](CO)C(=O)N[C@@H](CCC(N)=O)C(=O)NCC(=O)NCC(=O)N[C@@H](CO)C(=O)NCCC(N)=O [Peptide 86, PyroGlu-Ala-Lys-Ser-Gln-Gly-Gly-Ser-β-Ala-NH2] ([pGlu]AKSQGGS[βAla]-NH2)
[2]
  Spleens (test in vivo) 24 hours after injection: Quantity of azathioprine: 12 µg
[3]; Table I, thymectomised mice
  Activity in vivo: + (active)
[3]; overall judgement of the tests in vitro and in vivo
  Active or inactive polypeptide (conclusion from Tables I to IV): active
[4]; Table I, rosette test
  Activity in vitro: + (active)
[4]; Table III, rosette test, azathioprine 10 μg/ml, 90 minutes at 37° C.
  Active concentration (ng/ml) (test in vitro): 7.10^-3 ng/ml
[5]; Table I
  Bonding with the antibodies: -
[5]; Table IV
  Bonding with the antibodies: -

## C[C@H](NC(=O)[C@@H]1CCC(=O)N1)C(=O)N[C@@H](CCCCN)C(=O)N[C@@H](CO)C(=O)N[C@@H](CCC(N)=O)C(=O)N[C@H](C)C(=O)NCC(=O)N[C@@H](CO)C(=O)N[C@@H](CC(N)=O)C(=O)O [Peptide 89, PyroGlu-Ala-Lys-Ser-Gln-D-Ala-Gly-Ser-Asn] ([pGlu]AKSQ[dA]GSN-OH)
[1]
  Time of the activity peak in the serum after injection: ~60 min

## Cn1cnc([N+](=O)[O-])c1Sc1ncnc2nc[nH]c12 [azathioprine]
[4]; Mus musculus, spleen cells coming from normal mice, read-out: minimal concentration of Az inhibiting 50% of the cells of the spleen forming rosettes (RFC)
  IC50: 1 µg/mL (≈ 3.61 µM)

## angiotensine
[4]
  Activity in the rosette test (control peptides): inactive

## substance P (RPKPQQFFGLM; ends and bridges not checked; UniProt P20366 58-68, looked up) [control peptide of similar molecular weight]
[4]
  Activity in the rosette test (control peptides): inactive
